From patent US4182895A, “1-Amino-lower-alkyl-3,4-diphenyl-1H-pyrazoles” (Sterling Drug Inc., priority 1978, dated 1980)

Assays:
[1] = Rosenthal, 1953; cited from earlier work
tetrabenazine = assay: Anti-tetrabenazine (TB) test, anti-depressant activity: photocell activity counts after tetrabenazine; type: in vivo, Male Swiss-Webster mice; conditions: 4 h before tetrabenazine 50 mg./kg. i.p.
Procedure: The test procedure used to determine the anti-depressant activity of the compounds of the invention is described as follows: Male Swiss-Webster mice (Taconic Farms) weighing from 19-24 g. were divided into four groups of nine to ten mice per group. […] The fourth group received the vehicle only. Four hours following medication, all the control and the test animals were medicated with 50 mg./kg. (i.p.) of tetrabenazine and were placed in a photocell activity cage [described by Harris et al., Psychon. Sci., 4, 267 (1966)] equipped with a digital counter to record the number of times that a light beam impinging on a photocell is interrupted during the test period. Beginning thirty minutes after tetrabenazine medication, the photocell units were activated and the photocell counts recorded over a fifty minute period.

[2] = system: acetylcholine-induced abdominal constriction; assay: Acetylcholine-induced abdominal constriction test (Ach), analgesic activity; type: in vivo, mice; conditions: for ED50: Mus musculus
From the text: (§1) The test procedures used to determine the analgesic activities of the compounds of the invention have been described in detail in the prior art and are as follows: The acetylcholine-induced abdominal constriction test, which is a primary analgesic screening test to measure the ability of a test agent to suppress acetylcholine-induced abdominal constriction in mice described by Collier et al., Brit. J. Pharmacol. Chemotherap. 32, 295 (1968) and the phenyl p-quinone-induced writhing test, also a primary analgesic screening test, designed to measure the ability of a test agent to prevent phenyl p-quinone-induced writhing in mice, described by Pearl and Harris, J. Pharmacol. Exptl. Therap. 154, 319-323 (1966).

[3] = system: phenyl p-quinone-induced writhing; assay: Phenyl p-quinone-induced writhing test (PPQ), analgesic activity; type: in vivo, mice; conditions: Mus musculus, po
From the text: as §1

[4] = Buchi et al., 1955; cited from earlier work
[5] = Tested at 4, 16 and 64 mg./kg. (p.o.), activity = significant difference, 0.05 level or less

NCCn1nc(-c2ccccc2)cc1-c1ccccc1 [1-(2-aminoethyl)-3,5-diphenyl-1H-pyrazole]
local anesthetic activity [1]: having local anesthetic activity

CN(C)CCCn1cc(-c2ccccc2)c(-c2ccccc2)n1.Cl.Cl [Example 2, 1-[3-(N,N-dimethylamino)propyl]-3,4-diphenyl-1H-pyrazole dihydrochloride]
TB (anti-tetrabenazine activity) (tetrabenazine; at 2 mg./kg.): Inac. | TB (anti-tetrabenazine activity) (tetrabenazine; at 4, 8 and 16 mg./kg.): Act.

CNCCCn1cc(-c2ccccc2)c(-c2ccccc2)n1.Cl [Example 1B, 1-[3-(N-methylamino)propyl]-3,4-diphenyl-1H-pyrazole hydrochloride]
TB (anti-tetrabenazine activity) (tetrabenazine; at 4 mg./kg.): Inac. | TB (anti-tetrabenazine activity) (tetrabenazine; at 16 and 64 mg./kg.): Act.

CCN(CC)CCn1cc(-c2ccccc2)c(-c2ccccc2)n1.Cl [Example 3, 1-[2-(N,N-diethylamino)ethyl]-3,4-diphenyl-1H-pyrazole hydrochloride]
Ach % effect ([2]; 10 mg./kg. s.c.): 53% | Ach % effect ([2]; 50 mg./kg. s.c.): 67% | Ach % effect ([2]; 100 mg./kg. s.c.): 60% | ED50 ([2]; po): 29 mg/kg | TB (anti-tetrabenazine activity) (tetrabenazine; [5]): Inac. | ED50 [3]: 90 mg/kg

Cl.Cl.NCCCn1cc(-c2ccccc2)c(-c2ccccc2)n1 [Example 1A, 1-(3-aminopropyl)-3,4-diphenyl-1H-pyrazole dihydrochloride]
ED50 ([2]; sc): 11 mg/kg | TB (anti-tetrabenazine activity) (tetrabenazine; [5]): Inac.

Cc1cn(CCN(C)C)nc1-c1ccccc1 [1-(2-dimethylaminoethyl)-3-phenyl-4-methyl-1H-pyrazole]
analgesic activity [4]: analgesic activity is asserted

CCN(CC)CCCn1cc(-c2ccccc2)c(-c2ccccc2)n1.Cl [Example 4, 1-[3-(N,N-diethylamino)propyl]-3,4-diphenyl-1H-pyrazole hydrochloride]
ED50 ([2]; sc): 2.2 mg/kg | TB (anti-tetrabenazine activity) (tetrabenazine; [5]): Inac.
